Experimental data taken from paper PMC8230565, “Bisavenathramide Analogues as Nrf2 Inductors and Neuroprotectors in In Vitro Models of Oxidative Stress and Hyperphosphorylation” (Antioxidants, 2021).
Entries after “also recorded” stand apart in the source; their conditions may differ.

How the values were obtained:
[1] = biological target: AChE (Electrophorus electricus) (Electrophorus electricus, UniProt O42275); test: Acetylcholinesterase inhibition (Ellman's method); format: biochemical; conditions: for inhibition at 10 µM: 10 μM compound, read-out: % Inhibition of EeAChE at 10 μM
Procedure: Ellman’s method was employed to determine the inhibitory capacity of the compounds against AChE (Electrophorus electricus). The compounds were studied at 10 μM concentration, at room temperature, using PBS (0.1 M, pH 8) as solvent. Transparent 48-well microplates (COSTAR 3548) were used and, in each one, a blank was included. The compounds were incubated with the enzyme (0.09 U/mL) and with DTNB (0.35 mM) for 10 min. Afterwards, the enzyme substrate acetylthiocholine (0.35 mM) was added to a final volume of 1 mL. The microplate was incubated at room temperature for 15 min. Then, the absorbance was measured at 420 nm using the microplate reader FluoStar Optima (BMG Labtech, Ortenberg, Baden-Württemberg, Germany). The enzymatic activity was calculated by subtracting the blank absorbance from the sample absorbance and dividing the result by the absorbance of the maximum activity subtracted from blank absorbance, and the result was multiplied by one hundred to give a percentage. The inhibitory activity was calculated by subtracting the enzymatic activity from one hundred. Selected compounds were assayed at 0.3, 1, 3, 10, and 30 μM concentrations to obtain inhibition curves. The results were plotted versus concentration to obtain IC50 values through sigmoidal non-lineal adjustment. All the experiments were performed at least in triplicate.
Bisavenanthramide B-6 and heliotropamide A have been identified as acetylcholinesterase inhibitors. This precedent, coupled with our interest in the potential characterization of our compounds as multitarget-directed ligands, led us to investigate them as inhibitors of this enzyme, an important anti-Alzheimer target.

[2] = Ferric reducing antioxidant power (FRAP) assay; set-up: key to FRAP TEAC: trolox equivalents (TEAC), relative to trolox; conditions: for FRAP TEAC: 30 µM, relative to trolox; for FRAP nmol Fe2+ at 30 µM: 30 µM compound, n in brackets
Procedure: A ferric reducing antioxidant power (FRAP) kit assay purchased from Sigma-Aldrich (Madrid, Spain) was employed for the experiments. The antioxidant solutions, FRAP assay buffer solution, FeCl3 solution, and FRAP probe solution were kept in ice during the preparation of the plate. A calibration standard curve was prepared by using the 2 mM ferrous standard solution provided in the FRAP kit assay. Appropriate aliquots of this solution were taken and diluted up to a 200 μL final volume with FRAP buffer. The final ferrous concentrations measured in the well were: 0, 20, 40, 60, 80, and 100 μM. Each concentration value was prepared and measured by triplicate. Stock solutions of compounds 3, as well as reference compounds trolox and ferulic acid, were freshly prepared in 95% ethanol at […]. Aliquots of 10 μL of compounds 3 and the reference compounds were mixed with 19 μL FeCl3 solution and 19 μL FRAP probe solution, and then completed to a final volume of 200 μL with FRAP assay buffer solution. The final concentration of antioxidants and references was 30 μM. Compounds 3, reference compounds, as well as the corresponding blank solutions (one for each compound to be assayed, avoiding the chromogenic FRAP probe), and positive control were thoroughly mixed in vortex for 1–2 min with the reaction chromogenic media, and then were incubated under darkness at 37 °C in the dry bath, and using the device for support well-plates. Each compound to be assayed and the reference antioxidant compounds were prepared and measured by triplicate. The absorbance values were measured at 594 nm after 5 min of reaction and, to assure complete reaction, the absorbance values after 60 min of incubation at 37 °C in the dry bath were also measured. The absorbance values of the sample antioxidant compounds were corrected by subtracting the corresponding absorbance values of the blanks, and then they were introduced in the calibration curve and the ferrous equivalents were determined. The reference antioxidants employed for this assay were trolox and ferulic acid, which were obtained from Sigma-Aldrich (Madrid, Spain). Ultrapure water was obtained from a Milli-Q Direct 8 system (Millipore, Molsheim, France).
In order to achieve a broader insight into the antioxidant profile of our compounds, we also examined them using a single electron transfer (SET)-based method, namely the ferric reducing antioxidant power (FRAP) assay, which measures the ability of an antioxidant to reduce the ferric ion in the TPTZ (2,4,6-tri(2-pyridyl)-1,3,5-triazine)-Fe(III) complex.

SH-SY5Y cells = test: Neuroprotection against okadaic acid in SH-SY5Y cells (MTT); format: cell-based; conditions: for % neuroprotection against okadaic acid at 1 µM: Homo sapiens, SH-SY5Y, 18 h, 1 µM compound, okadaic acid 20 nM, read-out: % Neuroprotection ± SEM at 1 µM (okadaic acid)
Procedure: Neuroprotection studies against tau hyperphosphorylation exerted by okadaic acid (OA) were evaluated using the SH-SY5Y cell line as follows. […] After 18 h, cell viability was addressed by the MTT reduction method. MTT (5 mg/mL, 10 μL/well) was added and incubated for 2 h. Then, the medium was removed and the purple formazan crystals formed by viable cells were dissolved using 100 μL of DMSO. A FluoStar Optima spectrophotometer (BMG Labtech, Ortenberg, Baden-Württemberg, Germany) was used to measure the absorbance at 570 nm.
Okadaic acid is a potent inhibitor of protein phosphatase 2A (PP2A), thereby inducing tau hyperphosphorylation. For this reason, it can be employed as a model of neurodegenerative-disease-connected tau hyperphosphorylation, a well-known feature of Alzheimer’s disease, but present also in other NDDs, collectively known as tauopathies and characterized by the pathological aggregation of hyperphosphorylated tau in neurofibrillary tangles. […] Tau hyperphosphorylation is connected to oxidative stress, which activates p38 and deactivates calcineurin, a phosphatase involved in tau dephosphorylation by increasing RCAN1, its natural repressor [34, 35]. Indeed, hyperphosphorylation and oxidative stress have been proposed to generate a vicious circle that is critical to the advance of neurodegenerative tauopathies.

[3] = DPPH radical scavenging assay; conditions: for DPPH Scavenging at 0.1 mM, %: 0.1 mM compound; for DPPH Scavenging at 1 mM, %: 1 mM compound; for IC50: n in brackets
Procedure: The direct antioxidant effects of compounds 3 were investigated by studying their radical-scavenging effect on the 2,2-diphenyl-1-picrylhydrazyl free radical (DPPH^•). Thus, a 100 μL volume of a methanol solution of each compound was added to 200 μL of 100 μM methanolic DPPH^•, and the solution was kept in the dark at 37 °C for 30 min in a 96-well microliter plate. After this incubation, the absorption at 490 nm of each solution was measured with a microplate reader in order to quantitate its decrease. A blank reading was also taken to calculate the amount of remaining DPPH^•. The radical-scavenging activity exerted by compounds 3 was determined by comparison with a 10 μL of MeOH-treated blank group. Ascorbic acid, a well-known antioxidant acting as a radical scavenger, was used as reference. All samples were analyzed in triplicate. Percent inhibition of the DPPH^• radical was calculated using the equation shown below, where AbsCtrl is the absorbance of the blank group and Abss is the absorbance of the samples containing compounds 3. For each compound showing a percentage of inhibition above 60%, the IC50 value was determined using a dose–response curve obtained from measurements corresponding to at least six concentrations. %Scavenger=AbsCtrl−AbsS/AbsCtrl×100
The radical scavenging activity of all compounds was first studied by the DPPH assay, which measures the ability of antioxidant compounds to donate a hydrogen atom to the violet 2,2-diphenyl-1-picrylhydrazyl radical and transform it into a nonradical species. Thus, it is generally considered to belong to the hydrogen atom transfer (HAT) category of methods for measurement of antioxidant activity.

AChE (Electrophorus electricus), sequence (O42275 24-633): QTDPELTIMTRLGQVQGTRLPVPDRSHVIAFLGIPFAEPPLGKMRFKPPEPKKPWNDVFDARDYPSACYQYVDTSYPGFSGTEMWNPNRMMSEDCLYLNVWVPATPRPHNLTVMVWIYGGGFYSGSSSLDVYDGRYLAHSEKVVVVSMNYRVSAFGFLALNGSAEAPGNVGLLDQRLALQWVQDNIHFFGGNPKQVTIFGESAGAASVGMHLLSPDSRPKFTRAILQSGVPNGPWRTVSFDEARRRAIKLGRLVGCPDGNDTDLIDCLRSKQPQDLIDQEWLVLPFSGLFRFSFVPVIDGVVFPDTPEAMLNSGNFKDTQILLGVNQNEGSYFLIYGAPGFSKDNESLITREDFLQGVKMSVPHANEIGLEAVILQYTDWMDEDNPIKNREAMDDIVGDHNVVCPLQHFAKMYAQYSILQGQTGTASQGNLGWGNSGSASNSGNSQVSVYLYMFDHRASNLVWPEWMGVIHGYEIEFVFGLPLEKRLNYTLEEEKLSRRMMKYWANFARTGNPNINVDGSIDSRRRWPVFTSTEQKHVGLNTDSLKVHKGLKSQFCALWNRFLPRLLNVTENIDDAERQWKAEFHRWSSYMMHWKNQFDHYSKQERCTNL

| Compound | inhibition at 10 µM [1] [%] | FRAP TEAC [2] | % neuroprotection against okadaic acid at 1 µM (SH-SY5Y cells) [%] | DPPH Scavenging at 0.1 mM, % [3] [%] | DPPH Scavenging at 1 mM, % [3] [%] | IC50 ([1]; n in brackets, read-out: IC50 (EeAChE)) [µM] | FRAP nmol Fe2+ at 30 µM [2] | level of neuroprotection compared with melatonin / in words (okadaic acid) (SH-SY5Y cells; 1 µM) | radical scavenging activity in the DPPH assay [3] | IC50 [3] [µM] | antioxidant activity in FRAP compared with references [2] | neuroprotective effect against okadaic acid by concentration (SH-SY5Y cells; 0.01, 0.1, 1, 10 and 30 µM, OA 20 nM) |
| --- | --- | --- | --- | --- | --- | --- | --- | --- | --- | --- | --- | --- |
| COC(=O)C1=C(C)N(Cc2ccccc2)C(=O)/C1=C\c1ccccc1 [Compound 3a, Methyl (Z)-1-Benzyl-4-benzylidene-2-methyl-5-oxo-4,5-dihydro-1H-pyrrole-3-carboxylate] | 27.4 | 0.62 | 68 ± 22 | 9.7 ± 3.8 | 47.5 ± 4.9 | – | – | – | – | – | – | – |
| COC(=O)C1=C(C)N(Cc2ccccc2)C(=O)/C1=C\c1ccc(OC)cc1 [Compound 3b, Methyl (Z)-1-Benzyl-4-(4-methoxybenzylidene)-2-methyl-5-oxo-4,5-dihydro-1H-pyrrole-3-carboxylate] | 36.7 | 0.63 | 54.1 ± 14.3 | 6.5 ± 4.5 | 27.2 ± 6.4 | 29.7 ± 3 | 1.44 ± 0.02 (3) nmol Fe^2+ | – | – | – | – | – |
| COC(=O)C1=C(C)N(Cc2ccccc2)C(=O)/C1=C\c1ccc(Cl)cc1 [Compound 3c, Methyl (Z)-1-Benzyl-4-(4-chlorobenzylidene)-2-methyl-5-oxo-4,5-dihydro-1H-pyrrole-3-carboxylate] | 33.5 | 0.62 | 52.8 ± 9.96 | 3.7 ± 3.8 | 36.6 ± 3.4 | – | 1.41 ± 0.03 (3) nmol Fe^2+ | – | – | – | – | – |
| COC(=O)C1=C(C)N(CCc2ccccc2)C(=O)/C1=C\c1ccc2c(c1)OCO2 [Compound 3d, Methyl (Z)-4-(Benzo[d](1,3)dioxol-5-ylmethylene)-2-methyl-5-oxo-1-phenethyl-4,5-dihydro-1H-pyrrole-3-carboxylate] | 25.2 | 0.62 | 52.7 ± 17.2 | 40.5 ± 5.0 | 41.6 ± 4.1 | – | 1.41 ± 0.04 (3) nmol Fe^2+ | – | – | – | – | – |
| COC(=O)C1=C(C)N(CCc2ccccc2)C(=O)/C1=C\c1ccc(OC)cc1OC [Compound 3e, Methyl (Z)-4-(2,4-Dimethoxybenzylidene)-2-methyl-5-oxo-1-phenethyl-4,5-dihydro-1H-pyrrole-3-carboxylate] | 24.3 | 0.63 | 62.8 ± 8 | 6.33 ± 4.2 | 27.0 ± 2.6 | – | 1.44 ± 0.01 (3) nmol Fe^2+ | – | – | – | – | – |
| COC(=O)C1=C(C)N(CCc2ccccc2)C(=O)/C1=C\c1cc(OC)c(OC)cc1OC [Compound 3f, Methyl (Z)-2-Methyl-5-oxo-1-phenethyl-4-(2,4,5-trimethoxybenzylidene)-4,5-dihydro-1H-pyrrole-3-carboxylate] | 29.3 | 0.62 | 48.3 ± 11 | 9.7 ± 0.6 | 9.7 ± 2.2 | – | 1.42 ± 0.04 (3) nmol Fe^2+ | – | – | – | – | – |
| COC(=O)C1=C(C)N(CCc2ccccc2)C(=O)/C1=C\c1cc(OC)c(OC)c(OC)c1 [Compound 3g, Methyl (Z)-2-Methyl-5-oxo-1-phenethyl-4-(3,4,5-trimethoxybenzylidene)-4,5-dihydro-1H-pyrrole-3-carboxylate] | 11.6 | 0.60 | 65.7 ± 29.1 | 8.1 ± 4.7 | 46.5 ± 2.3 | – | 1.36 ± 0.10 (3) nmol Fe^2+ | – | – | – | – | – |
| COC(=O)C1=C(C)N(CCc2ccccc2)C(=O)/C1=C\c1ccc(OC)c(O)c1 [Compound 3h, Methyl (Z)-4-(3-Hydroxy-4-methoxybenzylidene)-2-methyl-5-oxo-1-phenethyl-4,5-dihydro-1H-pyrrole-3-carboxylate] | 24.2 | 0.71 | 81.9 ± 28.5 | 89.0 ± 0.4 | – | – | 1.63 ± 0.04 (3) nmol Fe^2+ | excellent neuroprotection | high radical scavenging activity | 26.3 ± 2.1 | – | – |
| COC(=O)C1=C(C)N(CCc2ccccc2)C(=O)/C1=C\c1ccc(O)c(O)c1 [Compound 3i, Methyl (Z)-4-(3,4-Dihydroxybenzylidene)-2-methyl-5-oxo-1-phenethyl-4,5-dihydro-1H-pyrrole-3-carboxylate] | 27.2 | 1.01 | 60.9 ± 23.3 | 90.9 ± 0.5 | – | – | 2.30 ± 0.08 (3) nmol Fe^2+ | – | high radical scavenging activity | 7.5 ± 0.4 | more active than ferulic acid and slightly more active than trolox | concentration-dependent neuroprotective effect being statistically significant at 1 and 10 µM; also recorded: neuroprotection was lost at 30 µM |
| COC(=O)C1=C(C)N(CCc2ccccc2)C(=O)/C1=C\c1ccc(OCc2ccccc2F)c(OC)c1 [Compound 3j, Methyl (Z)-4-[4-((2-Fluorobenzyl)oxy)-3-methoxybenzylidene]-2-methyl-5-oxo-1-phenethyl-4,5-dihydro-1H-pyrrole-3-carboxylate] | 16 | 0.70 | 31.8 ± 15.2 | 4.3 ± 2.1 | 31.3 ± 3.3 | – | 1.60 ± 0.04 (3) nmol Fe^2+ | – | – | – | – | – |
